According to US20130260376A1, “Prediction of and Monitoring Cancer Therapy Response Based on Gene Expression Profiling” (WHITEHEAD INSTITUTE FOR BIOMEDICAL RESEARCH, priority 2010, published 2013):

Test system: HMLER breast cancer populations
Assay: Microarray gene expression / Gene Set Enrichment Analysis of HMLER cells after drug treatment versus DMSO control
Format: cell-based
Conditions: relative to DMSO control, GSEA; for collective expression level of the genes in Table 1 (EMT-associated genes) and subsets thereof upon treatment: FIGS. 2 and 5; for collective expression level of the genes in Table 2 (non-EMT-associated genes) and subsets thereof upon treatment: FIGS. 3 and 4
Method: The collective expression levels of the genes in Tables 1 and 2 after paclitaxel treatment were then determined. For these analyses, which are shown in FIGS. 2 and 3, collections of gene subsets of various sizes were chosen.
Next, identical analyses as those described above were performed in the context of treatment with a different anti-cancer agent—salinomycin—that was previously identified as specifically killing invasive cancer stem cells. The opposite expression change (relative to paclitaxel) was observed upon treatment with salinomycin. […] As a consequence, measurement of the expression of the genes in Table 1 (or any appropriate subsets thereof identified according to the methods disclosed herein) would serve to identify tumors that would be responsive to a CSS agent (e.g., salinomycin treatment) when applied as a single agent.

SMILES	collective expression level of the genes in Table 1 (EMT-associated genes) and subsets thereof upon treatment	collective expression level of the genes in Table 2 (non-EMT-associated genes) and subsets thereof upon treatment
CC(=O)O[C@H]1C(=O)[C@@]2(C)[C@H]([C@H](OC(=O)c3ccccc3)[C@]3(O)C[C@H](OC(=O)[C@H](O)[C@@H](NC(=O)c4ccccc4)c4ccccc4)C(C)=C1C3(C)C)[C@]1(OC(C)=O)CO[C@@H]1C[C@@H]2O [paclitaxel]	over-expressed	under-expressed
CC[C@@H](C(=O)[C@@H](C)[C@@H](O)[C@H](C)[C@@H]1O[C@@H]([C@@H](CC)C(=O)O)CC[C@@H]1C)[C@H]1O[C@]2(C=C[C@@H](O)[C@]3(CC[C@@](C)([C@H]4CC[C@](O)(CC)[C@H](C)O4)O3)O2)[C@H](C)C[C@@H]1C [salinomycin]	under-expressed	over-expressed
